# Experimental data reported in patent publication EP4273147A1, “SUBSTITUTED SPIROLACTAMS, SALTS THEREOF AND THEIR USE AS HERBICIDALLY ACTIVE SUBSTANCES” (Bayer Aktiengesellschaft, priority 2022, dated 2023).
# Assays:
# KCHSC = assay: Herbicidal pre-emergence action (Table A10); format: in vivo, Kochia scoparia; conditions: application rate 1280 g/ha; visual grading after ca. 3 weeks
# Outline: (§1)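 Two-species sowings per pot, mono- plus dicotyledonous weeds; soil type sandy loam, seed covered after sowing.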
# ZEAMX = assay: Post-emergence effects on crop plants (Table F1); format: in vivo, Zea mays; conditions: application rate 80 g/ha, crop plant ZEAMX
# Excerpt: (§2) 2 to 3 weeks after sowing, the test plants were sprayed in the single-leaf stage.
# ECHCG [1] = assay: Herbicidal post-emergence action, section E (Table E5); format: in vivo, Echinochloa crus-galli; conditions: application rate 80 g/ha; assessed visually after ca. 3 weeks
# Excerpt: as §2
# AMARE = assay: Herbicidal pre-emergence action (Table A8); format: in vivo, Amaranthus retroflexus; conditions: application rate 1280 g/ha; visual grading after ca. 3 weeks vs untreated controls (100% = plants have died off, 0% = as control plants)
# Outline: as §1
# POAAN [2] = assay: Herbicidal post-emergence action (Table B7); format: in vivo, Poa annua; conditions: application rate 320 g/ha
# Outline: (§3)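 Plants grown from seed in a greenhouse are treated at the one-leaf stage, two to three weeks after sowing. They then stay under optimum growth conditions for about three weeks before herbicidal activity is scored visually on a 0–100% scale against untreated controls.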
# ABUTH [3] = assay: Herbicidal post-emergence action, section E (Table E1); format: in vivo, Abutilon theophrasti; conditions: application rate 320 g/ha; assessed visually after ca. 3 weeks
# Excerpt: as §2
# MATIN [4] = assay: Herbicidal post-emergence action (Table B6); format: in vivo, Matricaria inodora; conditions: application rate 320 g/ha; rated visually after about 3 weeks
# Outline: as §3
# ABUTH [5] = assay: Herbicidal post-emergence action (Table B1); format: in vivo, Abutilon theophrasti; conditions: application rate 320 g/ha; treated at one-leaf stage; rated visually after about 3 weeks vs untreated controls (100% = plants have died, 0% = like control plants)
# Outline: as §3
# DIGSA [6] = assay: Herbicidal post-emergence action, section E (Table E4); format: in vivo, Digitaria sanguinalis; conditions: application rate 320 g/ha; assessed visually after ca. 3 weeks
# Excerpt: as §2
# MATIN [7] = assay: Herbicidal pre-emergence action (Table A4); format: in vivo, Matricaria inodora; conditions: application rate 320 g/ha; visual grading after ca. 3 weeks
# Outline: as §1
# ALOMY [8] = assay: Herbicidal post-emergence action (Table B2); format: in vivo, Alopecurus myosuroides; conditions: application rate 320 g/ha; rated visually after about 3 weeks
# Outline: as §3
# LOLRI [9] = assay: Herbicidal post-emergence action, section E (Table E6); format: in vivo, Lolium rigidum; conditions: application rate 320 g/ha; assessed visually after ca. 3 weeks
# Excerpt: as §2
# ABUTH [10] = assay: Herbicidal pre-emergence action, section C (Table C1); format: in vivo, Abutilon theophrasti; conditions: application rate 80 g/ha; visual grading after ca. 3 weeks
# SETVI [11] = assay: Herbicidal post-emergence action (Table B8); format: in vivo, Setaria viridis; conditions: application rate 320 g/ha
# Outline: as §3
# VERPE [12] = assay: Herbicidal pre-emergence action, section C (Table C11); format: in vivo, Veronica persica; conditions: application rate 320 g/ha; visual grading after ca. 3 weeks
# SETVI [13] = assay: Herbicidal pre-emergence action (Table A5); format: in vivo, Setaria viridis; conditions: application rate 320 g/ha; visual grading after ca. 3 weeks
# Outline: as §1
# GLXMA = assay: Pre-emergence effects on crop plants (Table D4); format: in vivo, Glycine max; conditions: crop plant; application rate 80 g/ha; visual grading after ca. 3 weeks
# ECHCG [14] = assay: Herbicidal pre-emergence action (Table A2); format: in vivo, Echinochloa crus-galli; conditions: application rate 320 g/ha; visual grading after ca. 3 weeks
# Outline: as §1
# ORYZA = assay: Post-emergence effects on crop plants (Table F3); format: in vivo, Oryza sativa; conditions: application rate 80 g/ha, crop plant ORYZA
# Excerpt: as §2
# VIOTR [15] = assay: Herbicidal pre-emergence action, section C (Table C12); format: in vivo, Viola tricolor; conditions: application rate 80 g/ha; visual grading after ca. 3 weeks
# Excerpt: (§4) Seeds of mono- and dicotyledonous weed plants and crop plants were sown, in plastic or organic planting pots, in sandy loam and covered with soil. The compounds according to the invention, formulated in the form of wettable powders (WP) or as emulsifiable concentrates (EC), were applied to the surface of the covering soil as aqueous suspension or emulsion, with the addition of 0.5% of an additive, at an application rate of 600 1 of water/ha (converted). Following treatment, the pots were placed in a greenhouse and kept under optimum growth conditions for the test plants.
# SETVI [16] = assay: Herbicidal post-emergence action, section E (Table E8); format: in vivo, Setaria viridis; conditions: application rate 320 g/ha; assessed visually after ca. 3 weeks
# Excerpt: as §2
# VERPE [17] = assay: Herbicidal post-emergence action (Table B10); format: in vivo, Veronica persica; conditions: application rate 320 g/ha
# Outline: as §3
# ABUTH [18] = assay: Herbicidal pre-emergence action (Table A1); format: in vivo, Abutilon theophrasti; conditions: application rate 320 g/ha; visual grading after ca. 3 weeks vs untreated controls (100% = plants have died off, 0% = as control plants)
# Outline: as §1
# SETVI [19] = assay: Herbicidal pre-emergence action, section C (Table C10); format: in vivo, Setaria viridis; conditions: application rate 80 g/ha; visual grading after ca. 3 weeks
# ALOMY [20] = assay: Herbicidal pre-emergence action, section C (Table C2); format: in vivo, Alopecurus myosuroides; conditions: application rate 80 g/ha; visual grading after ca. 3 weeks
# LOLRI [21] = assay: Herbicidal pre-emergence action, section C (Table C7); format: in vivo, Lolium rigidum; conditions: application rate 320 g/ha; visual grading after ca. 3 weeks
# VERPE [22] = assay: Herbicidal post-emergence action, section E (Table E9); format: in vivo, Veronica persica; conditions: application rate 320 g/ha; assessed visually after ca. 3 weeks
# Excerpt: as §2
# DIGSA [23] = assay: Herbicidal pre-emergence action, section C (Table C5); format: in vivo, Digitaria sanguinalis; conditions: application rate 80 g/ha; visual grading after ca. 3 weeks
# LOLRI [24] = assay: Herbicidal post-emergence action (Table B5); format: in vivo, Lolium rigidum; conditions: application rate 320 g/ha; rated visually after about 3 weeks
# Outline: as §3
# TRZAS = assay: Post-emergence effects on crop plants (Table F2); format: in vivo, Triticum aestivum; conditions: application rate 80 g/ha, crop plant TRZAS
# Excerpt: as §2
# ECHCG [25] = assay: Herbicidal pre-emergence action, section C (Table C6); format: in vivo, Echinochloa crus-galli; conditions: application rate 80 g/ha; visual grading after ca. 3 weeks
# STEME = assay: Herbicidal pre-emergence action (Table A6); format: in vivo, Stellaria media; conditions: application rate 320 g/ha; visual grading after ca. 3 weeks
# Outline: as §1
# ALOMY [26] = assay: Herbicidal post-emergence action, section E (Table E2); format: in vivo, Alopecurus myosuroides; conditions: application rate 320 g/ha; assessed visually after ca. 3 weeks
# Excerpt: as §2
# LOLRI [27] = assay: Herbicidal pre-emergence action (Table A3); format: in vivo, Lolium rigidum; conditions: application rate 320 g/ha; visual grading after ca. 3 weeks
# Outline: as §1
# VERPE [28] = assay: Herbicidal pre-emergence action (Table A11); format: in vivo, Veronica persica; conditions: application rate 320 g/ha; visual grading after ca. 3 weeks
# Outline: as §1
# DIGSA [29] = assay: Herbicidal pre-emergence action (Table A12); format: in vivo, Digitaria sanguinalis; conditions: application rate 320 g/ha; visual grading after ca. 3 weeks
# Outline: as §1
# POLCO = assay: Herbicidal pre-emergence action, section C (Table C9); format: in vivo, Polygonum convolvulus; conditions: application rate 320 g/ha; visual grading after ca. 3 weeks
# MATIN [30] = assay: Herbicidal pre-emergence action, section C (Table C8); format: in vivo, Matricaria inodora; conditions: application rate 320 g/ha; visual grading after ca. 3 weeks
# Excerpt: as §4
# VIOTR [31] = assay: Herbicidal post-emergence action, section E (Table E10); format: in vivo, Viola tricolor; conditions: application rate 320 g/ha; assessed visually after ca. 3 weeks
# Excerpt: as §2
# ECHCG [32] = assay: Herbicidal post-emergence action (Table B3); format: in vivo, Echinochloa crus-galli; conditions: application rate 320 g/ha; rated visually after about 3 weeks
# Outline: as §3
# ALOMY [33] = assay: Herbicidal pre-emergence action (Table A9); format: in vivo, Alopecurus myosuroides; conditions: application rate 320 g/ha; visual grading after ca. 3 weeks
# Outline: as §1
# DIGSA [34] = assay: Herbicidal post-emergence action (Table B12); format: in vivo, Digitaria sanguinalis; conditions: application rate 320 g/ha
# Outline: as §3
# POAAN [35] = assay: Herbicidal pre-emergence action (Table A7); format: in vivo, Poa annua; conditions: application rate 320 g/ha; visual grading after ca. 3 weeks
# Outline: as §1
structure (smiles),measurement,setting,value
"O=C1N(Cc2ccccc2F)CCCC12CCCN(Cc1ccccc1F)C2=O (single isomer, unassigned) [I-001]",pre-emergence activity against KCHSC,KCHSC,90%
same,post-emergence activity against ZEAMX,ZEAMX,0%
same,post-emergence activity against ECHCG,ECHCG [1],90%
same,pre-emergence activity against AMARE,AMARE,90%
same,post-emergence activity against POAAN,POAAN [2],90%
same,post-emergence activity against ABUTH,ABUTH [3],80%
same,post-emergence activity against MATIN,MATIN [4],90%
same,post-emergence activity against ABUTH,ABUTH [5],90%
same,post-emergence activity against DIGSA,DIGSA [6],80%
same,pre-emergence activity against MATIN,MATIN [7],90%
same,post-emergence activity against ALOMY,ALOMY [8],90%
same,post-emergence activity against LOLRI,LOLRI [9],90%
same,pre-emergence activity against ABUTH,ABUTH [10],80%
same,post-emergence activity against SETVI,SETVI [11],90%
same,pre-emergence activity against VERPE,VERPE [12],90%
same,pre-emergence activity against SETVI,SETVI [13],100%
same,pre-emergence activity against GLXMA,GLXMA,0%
same,pre-emergence activity against ECHCG,ECHCG [14],100%
same,post-emergence activity against ORYZA,ORYZA,0%
same,pre-emergence activity against VIOTR,VIOTR [15],90%
same,post-emergence activity against SETVI,SETVI [16],100%
same,post-emergence activity against VERPE,VERPE [17],90%
same,pre-emergence activity against ABUTH,ABUTH [18],90%
same,pre-emergence activity against SETVI,SETVI [19],100%
same,pre-emergence activity against ALOMY,ALOMY [20],100%
same,pre-emergence activity against LOLRI,LOLRI [21],100%
same,post-emergence activity against VERPE,VERPE [22],90%
same,pre-emergence activity against DIGSA,DIGSA [23],100%
same,post-emergence activity against LOLRI,LOLRI [24],90%
same,post-emergence activity against TRZAS,TRZAS,0%
same,pre-emergence activity against ECHCG,ECHCG [25],100%
same,pre-emergence activity against STEME,STEME,90%
same,post-emergence activity against ALOMY,ALOMY [26],90%
same,pre-emergence activity against LOLRI,LOLRI [27],100%
same,pre-emergence activity against VERPE,VERPE [28],90%
same,pre-emergence activity against DIGSA,DIGSA [29],100%
same,pre-emergence activity against POLCO,POLCO,80%
same,pre-emergence activity against MATIN,MATIN [30],100%
same,post-emergence activity against VIOTR,VIOTR [31],80%
same,post-emergence activity against ECHCG,ECHCG [32],100%
same,pre-emergence activity against ALOMY,ALOMY [33],90%
same,post-emergence activity against DIGSA,DIGSA [34],90%
same,pre-emergence activity against POAAN,POAAN [35],100%
